Type in all cases: cell-based
For assay [1], the system named is Staphylococcus aureus—ATCC 29213 “wild type”. The settings on record: for MIC: ATCC 29213. As for the experimental part: Independent experiments were conducted with different strains of Staphylococcus aureus—ATCC 29213 “wild type”; and Staphylococcus aureus—Methicillin resistant Staphylococcus aureus.
(§1) The ATCC (American Type Culture Collection) strains received from Cedarlane. Multi drug resistant (MDR) strains, as clinical isolates, were received from the laboratory of Dr. Linda Hoang.
(§2) Putative antimicrobial peptides were synthesized by GeneScript. A-list antimicrobial peptides re-synthesized by GeneScript. P2_CCH, P5_CCH, and P5_CCH_A19K were each synthesized under two conditions: standard synthesis using TFA, and the other with TFA-removal using acetate as a counter-ion. A MIC method, adapted for use with cationic antimicrobial peptides, was used to evaluate MIC antimicrobial activity (Hancock 1999).
(§3) The following data are presented to show the activity (MIC/MBC in μg/mL) of certain antimicrobial peptides described herein relative to a modified/synthetic version having a specified substitution. While data presented in tables above may be presented again, or may be represented in data provided in the tables below, such duplication is believed to assist the reader in readily noting comparisons. Different Run Numbers noted in the following tables denotes experiments conducted on different days, with each run reflecting multiple n values.

Assay [2] deals with Salmonella Enteritidis.
Text: as §2, §3

Assay [3] concerns Escherichia coli—ATCC 25922 “wild type”. As for the experimental part:
(§4) Independent experiments were conducted with four strains of E. coli, including ATCC E. coli (Escherichia coli—ATCC 25922 “wild type”); ESBL E. coli (Escherichia coli—Extended spectrum beta-lactamase); CPO E. coli (KPC) (Escherichia coli—Carbapenemase-producing organism; Klebsiella pneumoniae carbapenemase); and CPO E. coli (NDM) (Escherichia coli—Carbapenemase-producing organism; New-Dehli Metallobetalactamase).
as §1, §2, §3

Assay [4] relates to Escherichia coli—Carbapenemase-producing organism; Klebsiella pneumoniae carbapenemase. As for the experimental part:
as §4, §1, §2, §3

Assay [5] has as its system Escherichia coli—Carbapenemase-producing organism; New-Dehli Metallobetalactamase. As for the experimental part:
as §4, §1, §2, §3

Assay [6] relates to Escherichia coli—Extended spectrum beta-lactamase. As for the experimental part: as §4, §1, §2, §3
Assay [7] relates to Salmonella Heidelberg (MDR).
Text: as §1, §2, §3

Assay [8] relates to Escherichia coli: ATCC 9723H. The note with it: ATCC 9723. A digest of the protocol: (§5)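 MIC and MBC were run by broth microdilution adapted from Hancock cationic-AMP and CLSI methods, in Mueller Hinton broth (+5% lysed horse blood for S. pyogenes) at about 5×10^5 CFU/mL. Peptides came from two-fold 10× stocks (2560–5 μg/mL) and were incubated 16-24 h at 37 °C. For MBC, the MIC well and two more-concentrated wells were plated on MHA for 24 h at 37 °C.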

Assay [9] concerns Mycobacterium smegmatis (MC^2155). The settings on record: Mycobacterium (MC^2155). The method in brief:
as §5

Assay [10] relates to Pseudomonas aeruginosa: ATCC 10148. The note with it: ATCC 10148. A digest of the protocol: as §5
The subject of assay [11] is Staphylococcus aureus: ATCC 6538P. The note with it: ATCC 6538. A digest of the protocol:
as §5

Assay [12] concerns Streptococcus pyogenes: unknown strain, hospital isolate. The note with it: unknown strain, hospital isolate. The method in brief: as §5
Setting [13] is: Salmonella Heidelberg (MDR), Run No. 2.
[14] abbreviates: Salmonella Heidelberg (MDR), Run No. 3.

Consider eight compounds from patent US12280090B2, “Antimicrobial peptides” (priority 2018, dated 2025).

Values after ≈ are worked out from the molar mass of the structure shown. Like-named read-outs stand apart in the source and are kept apart here. Ends that are not written are not given here. Peptide text beside a SMILES is read from it.

For `CC[C@H](C)[C@H](NC(=O)[C@H](CCCCN)NC(=O)[C@H](CCC(=O)O)NC(=O)[C@H](CCCCN)NC(=O)[C@H](CO)NC(=O)[C@H](CCCCN)NC(=O)[C@H](CCCNC(=N)N)NC(=O)[C@H](Cc1ccccc1)NC(=O)[C@H](Cc1ccccc1)NC(=O)[C@H](CC(=O)O)NC(=O)CNC(=O)[C@H](CC(C)C)NC(=O)[C@@H](N)CC(C)C)C(=O)NCC(=O)N[C@@H](CCCCN)C(=O)N[C@@H](CCC(=O)O)C(=O)N[C@@H](Cc1ccccc1)C(=O)N[C@@H](CCCCN)C(=O)N[C@@H](CCCNC(=N)N)C(=O)N[C@H](C(=O)N[C@H](C(=O)N[C@@H](CCC(N)=O)C(=O)N[C@@H](CCCNC(=N)N)C(=O)N[C@H](C(=O)N[C@@H](CCCCN)C(=O)N[C@@H](CC(=O)O)C(=O)N[C@@H](Cc1ccccc1)C(=O)N[C@@H](CC(C)C)C(=O)N[C@@H](CCCNC(=N)N)C(=O)N[C@@H](CC(N)=O)C(=O)N[C@@H](CC(C)C)C(=O)N[C@H](C(=O)N1CCC[C@H]1C(=O)N[C@@H](CCCNC(=N)N)C(=O)N[C@H](C(=O)N[C@@H](CCC(=O)O)C(=O)N[C@@H](CO)C(=O)O)[C@@H](C)O)C(C)C)[C@@H](C)CC)C(C)C)[C@@H](C)CC` [LL-37, reference compound], the “Minimum Inhibitory Concentration (MIC)” value is reported as 128+ ug/mL in assay [1] (S. aureus ATCC 29213, Gram positive) and 64+ ug/mL in assay [2] (S. enterica spp. Enteritidis, Gram negative).

A word on the MBC: it is the lowest tested concentration that kills the bacteria rather than only halting them. Higher therefore signals less potent killing. By MIC is commonly meant the lowest concentration that inhibits growth of the organism. For `CC[C@H](C)[C@H](NC(=O)[C@H](CCCCN)NC(=O)[C@@H](NC(=O)[C@H](C)NC(=O)[C@H](Cc1ccccc1)NC(=O)[C@H](CC(=O)O)NC(=O)[C@H](CCCCN)NC(=O)CNC(=O)[C@@H](NC(=O)[C@@H](NC(=O)[C@H](CCCCN)NC(=O)[C@@H](NC(=O)[C@@H](NC(=O)[C@H](CC(=O)O)NC(=O)[C@H](CC(C)C)NC(=O)[C@H](CC(C)C)NC(=O)CN)[C@@H](C)CC)[C@@H](C)CC)[C@@H](C)O)[C@@H](C)O)C(C)C)C(=O)N[C@@H](CC(C)C)C(=O)N[C@@H](CC(=O)O)C(=O)N[C@@H](CC(N)=O)C(=O)N[C@@H](CC(C)C)C(=O)N[C@@H](CCCCN)C(=O)N[C@@H](CS)C(=O)N[C@@H](CCCCN)C(=O)N[C@@H](CC(C)C)C(=O)N[C@@H](C)C(=O)NCC(=O)NCC(=O)N[C@@H](CS)C(=O)N1CCC[C@H]1C(=O)N[C@@H](CCCCN)C(=O)O` [Peptide P4_CCH_P31K] (H-GLLDIIKTTGKDFAVKILDNLKCKLAGGCPK-OH; N-terminus and C-terminus assumed), the “Minimum Inhibitory Concentration (MIC)” value was 16 to 32 µg/mL in [3]; 16 to 32 µg/mL in [4]; 32 to 64 µg/mL in [5]; 32 µg/mL in [6]; 128+ ug/mL in assay [7] (S. enterica spp. Heidelberg, Gram negative). For the same compound, the values for the MBC in assay [6] and in assay [2] were 32 µg/mL (≈ 9.77 µM) and 256 µg/mL (≈ 78.2 µM), respectively. The MIC in assay [6] amounted to 32 µg/mL (≈ 9.77 µM); in assay [2], 256 µg/mL (≈ 78.2 µM); in assay [7], 128 µg/mL (≈ 39.1 µM).

Turning to “ALVAKIQKFPVFNTLKLCKLELEII [Peptide P11_CCH]”, the MBC in [8], in [9], in assay [10], in [11] and in [12] was more than 256 µg/mL each time. For the same compound, the MIC in assay [8] is more than 256 µg/mL; in assay [9], more than 256 µg/mL; in assay [10] it was more than 256 µg/mL; in assay [11], more than 256 µg/mL; in assay [12], more than 256 µg/mL; in [1], 64 µg/mL. In addition, the MIC in assay [2] came out at 32 µg/mL; in [7], 128 µg/mL.

As for “ALVAKIQKFPVFNTLKLCKLKLRII [P11_CCH_E21K_E23R]”, the values for the MBC in assay [3] and in [5] were 32 µg/mL and 128 µg/mL, respectively. Moreover, the MIC turned out to be 128 µg/mL in assay [1], 64 µg/mL in [2] and 128 µg/mL in [7].

Regarding “ATAWMIPPRGMQPIIPIRIRPLCGKQ [P7_CCH_P9R_R5M]”, the MIC came out at 256 µg/mL in assay [3]; 256 µg/mL in assay [4]; 256 µg/mL in assay [5]; 128 µg/mL in [6]; 128 µg/mL in [1]. The results for the MBC in [4] and in [6] were 256 µg/mL and 128 µg/mL, respectively.

Take “FFPRVLPLANKFLPTIYCALPKSVGN [Peptide P2_CCH]”: the MIC in [9] was 16 µg/mL; in assay [10] it was more than 256 µg/mL; in assay [11], more than 256 µg/mL; in assay [12], more than 256 µg/mL; in assay [2], 64 µg/mL; in assay [7], 128 µg/mL. The minimal bactericidal concentration (MBC) in [10] is more than 256 µg/mL; in [11], more than 256 µg/mL; in assay [12], more than 256 µg/mL; in [2] it was 64 µg/mL; in assay [7] it was 128 µg/mL. Moreover, the “Minimum Inhibitory Concentration (MIC)” value in assay [3] was 16 µg/mL; in assay [4] it was 16 to 32 µg/mL; in [5], 16 µg/mL; in [6], 16 µg/mL; in assay [2], 64 µg/mL; in assay [7] it was 128 µg/mL.

As for IQRLPVIKMLKLWKLELKII [P13_CCH_N8K_E18K], the MIC in [3] was 32 µg/mL; in [4], 64 µg/mL; in assay [5] (CPO E. coli (NDM), Run No. 4), ~64? μg/mL; in assay [5] (CPO E. coli (NDM), Run No. 5) it was ~64? μg/mL; in assay [1], 256 µg/mL; in assay [2], 16 µg/mL. Moreover, the MIC in assay [7] was 32 µg/mL; in assay [7] (setting [13]) it was ~16? μg/mL; in assay [7] (setting [14]) it was ~16? μg/mL.

For IQRLPVINMLKLWKLELEII [Peptide P13_CCH], the MBC in assay [8], in [9], in assay [10], in assay [11] and in assay [12] was more than 256 µg/mL in each case. Further, the MIC is more than 256 µg/mL in assay [8]; more than 256 µg/mL in [9]; more than 256 µg/mL in assay [10]; more than 256 µg/mL in [11]; more than 256 µg/mL in [12]; 256 µg/mL in assay [5]. For the same compound, the MIC was 128 µg/mL in [1]; 16 µg/mL in [2]; 32 µg/mL in [7]; ~32? μg/mL in assay [7] (setting [13]); ~32? μg/mL in [7] (setting [14]).
